Source: article PMC9402926, “Synthetic short-chain peptide analogues of H1 relaxin lack affinity for the RXFP1 receptor and relaxin-like bioactivity. Clues to a better understanding of relaxin agonist design” (Frontiers in Pharmacology, 2022)

Tests used:
[1] = biological target: RXFP1-BP (ectodomain of human RXFP1 fused to the single transmembrane and cytoplasmic region of CD8); assay: competition binding with europium-labelled ligand on whole cells; whole cells in 96 well plates; HEK-293T stably expressing RXFP1-BP; single concentration of europium-labeled H2 relaxin (1 nm as printed) with or without increasing concentrations of the competing peptides; non-specific binding with 1 µM serelaxin; triplicates, 2 independent experiments; one site binding model
[2] = test system: RXFP1; assay: cAMP generation in human monocytic THP-1 cells (RXFP1 downstream pathway), Direct cAMP ELISA; type: cell-based; details: serelaxin 17 nm, 15 min, IBMX 100 μM, 3 independent experiments
Description: Cell culture for cAMP assay—The RXFP1 downstream cAMP pathway was tested on human monocytic THP-1 cells (ECACC, Salisbury, UK) cultured in suspension in RPMI medium containing 10% foetal bovine serum, 0.05 mm 2-mercaptoethanol, 250 U/ml penicillin G and 250 μg/ml streptomycin, in a 5% CO2 atmosphere at 37°C. Cells (5 × 10^5) were placed in a 24-well plate, added with IBMX (100 μM) to prevent cAMP catabolism and then incubated with the different stimulants. As positive controls, either serelaxin (17 nm) and B7-33 (17, 170, 1700 nm) were used. The H1 peptides 4, 6 and 7, selected among those which had shown a minimal ability to bind RXFP1 in the competition binding experiments, were also used at 17, 170 and 1700 nm final concentration. The cAMP assay was carried out 15 min after RXFP1 stimulation, coinciding with the second sustained cAMP surge ([Nguyen et al., 2003]; [Bani et al., 2007]). The adenylate cyclase activator forskolin (100 μM) was used to determine the maximal cAMP levels. Triplicate cAMP measurements were performed by a Direct cAMP ELISA Kit (Enzo, Milan, Italy). […] The values of cAMP were normalized by the amount of proteins, measured by the micro-BCA Protein Assay Kit (Pierce, IL, United States) and expressed as mg/ml. For statistical purposes, 3 independent experiments were performed.

[3] = test system: RXFP1; assay: ERK1/2 phosphorylation in TGF-β1-induced myofibroblasts from NIH-3T3 fibroblasts expressing RXFP1, Western blot; type: cell-based; details: mouse myofibroblasts (TGF-β 48 h), 30 and 90 min, 3 independent experiments
Description: Cell culture for ERK1/2 phosphorylation assay - The RXFP1 downstream ERK1/2 phosphorylation pathway was tested on myofibroblasts using a method based on that described by [Hossain et al. (2016)], with minor modifications. Mouse NIH-3T3 fibroblasts (ATCC, Manassas, VA, United States) expressing RXFP1 ([Sassoli et al., 2013]) were cultured in DMEM supplemented with 10% fetal bovine serum (FBS), 2 mm glutamine, 250 U/ml penicillin G and 250 μg/ml streptomycin, in a humidified atmosphere with 5% CO2 at 37°C. They were induced to myofibroblasts in DMEM containing 2% FBS and 2 ng/ml human TGF-β1 (PeproTech, Rocky Hill, NJ, United States) for 12, 24, 48 and 72 h ([Sassoli et al., 2013]). Myofibroblasts were then incubated for 30 or 90 min with either serelaxin (17 nM), or B7-33 (1.7 μM), or the H1 peptides 6 and 7 (1.7 μM), selected among those which had shown a minimal ability to bind RXFP1 in the competition binding experiments. Untreated myofibroblasts were used as controls. To verify fibroblast-to-myofibroblast transition and ERK1/2 phosphorylation, cells were lysed in cold buffer composed of (mM): 10 Tris/HCl pH 7.4, 10 NaCl, 1.5 MgCl2, 2 Na2EDTA, 1% Triton X-100, added with 10x Sigmafast Protease Inhibitor Cocktail tablets and […] Na3VO4 to inhibit endogenous phosphatases. Total protein content was measured spectrophotometrically using micro-BCA Protein Assay Kit (Pierce). Sixty μg of total proteins were electrophoresed by SDS–PAGE and blotted onto PVDF membranes (Millipore, Bedford, MA, United States). […] Specific bands were detected using appropriate peroxidase-labeled secondary antibodies (1:15,000; Vector, Burlingame, CA, United States) and enhanced chemiluminescent substrate (ECL, Sigma-Aldrich). […]

[4] = i.v. administration; ref Chen et al., 1993; cited from earlier work
Description: Since recombinant human H2 relaxin (RLX), later termed serelaxin, was made available as clinical-grade drug ([Stults et al., 1990]), several clinical trials have been performed to explore its therapeutic potential, particularly as cardiovascular and anti-fibrotic agent ([Bani 2020]; [Samuel and Bennett 2021]; [Sassoli et al., 2022]). The last RELAX-AHF-2 phase III trial was performed under the auspices of Novartis Europharm Ltd., owner of the serelaxin patent, to assess its efficacy in patients with heart failure. Regrettably, in spite of encouraging theoretical premises and pre-clinical evide ...

[5] = test system: RXFP1-BP (ectodomain of human RXFP1 fused to the single transmembrane and cytoplasmic region of CD8); assay: Competition binding with europium-labelled H2 relaxin in HEK-293T cells stably expressing RXFP1-BP; details: 10 µM competing peptide; 1 nm europium-labeled H2 relaxin; whole cells, 96 well plates; triplicate points, 2 independent experiments
Source text: Cell culture for ligand-receptor binding assays—Human embryonic kidney cells (HEK-293T) stably expressing RXFP1-BP ([Halls et al., 2005]) were used for competition binding experiments using europium-labelled H2 relaxin, as described ([Shabanpoor et al., 2012]). This construct contains the ectodomain of human RXFP1 fused to the single transmembrane and cytoplasmic region of CD8. This ectodomain-only construct has a higher affinity for single chain H2 relaxin peptides and is used as a surrogate assay for binding affinity. Assays were performed in whole cell 96 well plates assays with a single concentration of the europium-labeled H2 relaxin (1 nm) in the presence or absence of increasing concentrations of the competing peptides. Non-specific binding was assessed using 1 µM of serelaxin. Each concentration point was assessed in triplicate in 2 independent experiments. The binding data were analyzed using GraphPad Prism 9 and expressed as mean ± SEM. They were fitted using a one site binding model.

Row | percent competition of Eu-H2 relaxin binding at 10 µM [1] [%] | Substance | competition of Eu-H2 relaxin binding [5] [%] | ERK1/2 phosphorylation ([3]; peptide 1.7 μM) | further results
1 | 20 | [Ser10,22]Cyclo[Pra17, LysN3 21]H1RLXB(1-23) (peptide) | – | – | –
2 | – | serelaxin | – | – | elevation of cAMP [2]: statistically significant elevation of cAMP; ERK1/2 phosphorylation ([3]; serelaxin 17 nM): statistically significant increase in ERK1/2 phosphorylation; half-life [4]: ~2 h
3 | 20 | [Ser10,22]Cyclo[LysN3 17, Pra21]H1RLXB(1-23) (peptide) | – | – | –
4 | – | [Ser^10,22]Cyclo[Pra^17, LysN3 ^21]H1RLXB(1–23) [compound 6] | ~20 | neither of the H1 peptides 6 and 7 were capable of reproducing the effects of the authentic hormone | –
5 | – | [Ser^10,22]Cyclo[LysN3 ^17, Pra^21]H1RLXB(1–23) [compound 7] | ~20 | neither of the H1 peptides 6 and 7 were capable of reproducing the effects of the authentic hormone | –
6 | – | [Ser^10,22]Cyclo[Pra^14, LysN3 ^18]H1RLXB(1–23) [compound 4] | ~20 | – | –
